Earlier results in patent publication US20220387454A1, “NUTRITIONAL COMPOSITION FOR VISUAL FUNCTION” (OMNIACTIVE HEALTH TECHNOLOGIES LIMITED, priority 2019, published 2022).

Test system: patients with dry eye syndrome (DES) refractory to conventional treatment with vitamin D deficiency
Conditions: intramuscular 200,000 IU, p<0.05

## C=C1CC[C@H](O)C/C1=C/C=C1\CCC[C@]2(C)[C@@H]([C@H](C)CCCC(C)C)CC[C@@H]12 [cholecalciferol]
2, 6, and 10 weeks
  Eyelid margin hyperemia: showed improvement
  Severity of symptoms: showed improvement
2 and 6 weeks vs pre-treatment
  Tear break-up time (TBUT): showed an improvement
  Tear secretion test: showed an improvement
2 weeks vs pre-treatment
  Fluorescein staining score (FSS): decreased
  Ocular surface disease index (OSDI): decreased
  Visual analogue pain score (VAS): decreased
